Measured values: ChEMBL document CHEMBL6134868, “Novel Aryl Sulfonium Modification on Vancomycin to Tackle MRSA and VRE In Vitro and In Vivo through Dual Enhanced Cell-Wall and Membrane Inhibition” (J Med Chem, 2025)
Active and inactive are the calls of the source. The calls are words filed in the database; no cut-off is given here.

Assays:
Staphylococcus aureus [1] = assay: Dissipation of membrane potential in methicillin-resistant Staphylococcus aureus USA300 LAC at 1.3 to 170 ug/ml by DiSC3(5) dye based analysis; type: functional, organism-based; conditions: dose 1.3-170 µg/ml
Enterococcus faecium [2] = assay: Antibacterial activity against vancomycin-resistant Enterococcus faecium Efm-HS-08257 harboring VanM phenotype incubated for 16 to 24 hrs by broth microdilution assay; type: functional; conditions: time 16-24 hrs
Enterococcus faecium [3] = assay: Antibacterial activity against vancomycin-resistant Enterococcus faecium Efm-HS-vb01 harboring VanB phenotype incubated for 16 to 24 hrs by broth microdilution assay; type: functional; conditions: time 16-24 hrs
Enterococcus faecium [4] = assay: Antibacterial activity against vancomycin-resistant Enterococcus faecium SC-2022-D2-059 harboring VanA phenotype incubated for 16 to 24 hrs by broth microdilution assay; type: functional; conditions: time 16-24 hrs
Staphylococcus aureus [5] = assay: Inhibition of peptidoglycan biosynthesis in methicillin-resistant Staphylococcus aureus USA300 LAC assessed as fold increase in accumulation of Park's nucleotide at 5 ug/ml incubated for 2 hrs by RP-HPLC analysis; type: functional; conditions: dose 5 µg/ml
[6] = Acute toxicity in mouse assessed as animal suvival at 40 mg/kg, iv measured for 7 days; type: organism-based; conditions: in vivo, 168 h, time 7 day
[7] = Cytotoxicity against HK-2 cells assessed as cell viability at 50 mg/L incubated for 72 hrs by CCK8 assay relative to control; type: toxicity, cell-based; conditions: human, at 50 µg/mL, read-out: Activity
Escherichia coli = assay: Antibacterial activity against Escherichia coli AB1157 incubated for 16 to 24 hrs by broth microdilution assay; type: functional; conditions: time 16-24 hrs
Staphylococcus aureus [8] = assay: Antibacterial activity against methicillin-resistant Staphylococcus aureus USA300 LAC infected in female BALB/c mouse assessed as animal survival rate at 7 mg/kg, iv measured for 7 days consecutively relative to control; type: functional; conditions: 168 h, time 7 day
Staphylococcus aureus [9] = assay: Induction of membrane permeability in methicillin-resistant Staphylococcus aureus USA300 LAC by fluorescence based analysis; type: functional, organism-based; conditions: dose 2.67-170 µg/ml
Pseudomonas aeruginosa = assay: Antibacterial activity against Pseudomonas aeruginosa PAO1 incubated for 16 to 24 hrs by broth microdilution assay; type: functional; conditions: time 16-24 hrs
Klebsiella pneumoniae = assay: Antibacterial activity against Klebsiella pneumoniae KP-1 incubated for 16 to 24 hrs by broth microdilution assay; type: functional; conditions: time 16-24 hrs
[10] = Half life in CD-1 mouse at 5 mg/kg, iv measured for 0.05 to 24 hrs by UPLC analysis; type: ADME, organism-based; conditions: in vivo, time 0.05-24 hrs
Acinetobacter baumannii [11] = assay: Induction of outer membrane permeability in carbapenem-resistant Acinetobacter baumannii CRAB-1 clinical isolate by NPN dye based analysis; type: functional, organism-based; conditions: dose 1.33-170 µg/ml
Enterococcus faecium [12] = assay: Antibacterial activity against vancomycin-resistant Enterococcus faecium SC-2022-D2-059 harboring VanA phenotype infected in ICR mouse assessed as animal survival rate at 5 mg/kg, iv measured for 7 days relative to control; type: functional; conditions: SC-2022-D2-059, 168 h, time 7 day
Staphylococcus aureus [13] = assay: Antibacterial activity against vancomycin-intermediate Staphylococcus aureus Mu50 incubated for 16 to 24 hrs by broth microdilution assay; type: functional; conditions: time 16-24 hrs
Staphylococcus aureus [14] = assay: Antibacterial activity against methicillin-resistant Staphylococcus aureus USA300 LAC incubated for 16 to 24 hrs by broth microdilution assay; type: functional; conditions: time 16-24 hrs
[15] = Clearance in CD-1 mouse at 5 mg/kg, iv measured for 0.05 to 24 hrs by UPLC analysis; type: ADME, organism-based; conditions: in vivo, time 0.05-24 hrs
Enterococcus faecium [16] = assay: Antibacterial activity against vancomycin-resistant Enterococcus faecium Efm-HS-0649 harboring VanA phenotype incubated for 16 to 24 hrs by broth microdilution assay; type: functional; conditions: time 16-24 hrs
Acinetobacter baumannii [17] = assay: Antibacterial activity against carbapenem-resistant Acinetobacter baumannii CRAB-1 clinical isolate incubated for 16 to 24 hrs by broth microdilution assay; type: functional; conditions: time 16-24 hrs
[18] = Volume of distribution at steady state in CD-1 mouse at 5 mg/kg, iv measured for 0.05 to 24 hrs by UPLC analysis; type: ADME, organism-based; conditions: in vivo, time 0.05-24 hrs, read-out: Vdss
[19] = AUClast in CD-1 mouse at 5 mg/kg, iv measured for 0.05 to 24 hrs by UPLC analysis; type: ADME, organism-based; conditions: in vivo, time 0.05-24 hrs
Enterococcus faecium [20] = assay: Antibacterial activity against vancomycin-resistant Enterococcus faecium SC-2022-D2-059 harboring VanA phenotype infected in ICR mouse assessed as animal survival rate at 10 to 20 mg/kg, iv measured for 7 days relative to control; type: functional; conditions: dose 10-20 mg/kg, time 7 day
[21] = Drug concentration in CD-1 mouse at 5 mg/kg, iv measured after 8 hrs; type: ADME, organism-based; conditions: in vivo, read-out: Drug uptake
[22] = MRT (infinity) in CD-1 mouse at 5 mg/kg, iv measured for 0.05 to 24 hrs by UPLC analysis; type: ADME, organism-based; conditions: in vivo, time 0.05-24 hrs
Bacteria = assay: Antibacterial activity against Gram-positive bacteria incubated for 16 to 24 hrs by broth microdilution assay; type: functional; conditions: time 16-24 hrs
[23] = Cytotoxicity against mouse AML12 cells assessed as cell viability at 50 mg/L incubated for 72 hrs by CCK8 assay relative to control; type: toxicity, cell-based; conditions: at 50 µg/mL, read-out: Activity
Acinetobacter baumannii [24] = assay: Antibacterial activity against Acinetobacter baumannii ATCC19606 incubated for 16 to 24 hrs by broth microdilution assay; type: functional; conditions: time 16-24 hrs
Enterococcus faecium [25] = assay: Antibacterial activity against vancomycin-resistant Enterococcus faecium Efm-HS-vb02 harboring VanB phenotype incubated for 16 to 24 hrs by broth microdilution assay; type: functional; conditions: time 16-24 hrs
[26] = Hemolytic activity against rat erythrocytes at 100 ug/ml incubated for 1 hr by absorbance based assay; type: toxicity, cell-based, Erythrocyte; conditions: erythrocyte, 1 h, dose 100 µg/ml
[27] = AUC (infinity) in CD-1 mouse at 5 mg/kg, iv measured for 0.05 to 24 hrs by UPLC analysis; type: ADME, organism-based; conditions: in vivo, time 0.05-24 hrs

For `CN[C@H](CC(C)C)C(=O)N[C@H]1C(=O)N[C@@H](CC(N)=O)C(=O)N[C@H]2C(=O)N[C@H]3C(=O)N[C@H](C(=O)N[C@H](C(=O)O)c4cc(O)c(CNCCC[S+](C)CC(O)COc5ccc(-c6ccc(C(F)(F)F)cc6)cc5)c(O)c4-c4cc3ccc4O)[C@H](O)c3ccc(c(Cl)c3)Oc3cc2cc(c3O[C@@H]2O[C@H](CO)[C@@H](O)[C@H](O)[C@H]2O[C@H]2C[C@](C)(N)[C@H](O)[C@H](C)O2)Oc2ccc(cc2Cl)[C@H]1O.O=C([O-])C(F)(F)F` (stereo partly specified), the Activity (Staphylococcus aureus [1]) was “Active”, the MIC (Enterococcus faecium [2]) was 2 µg/mL and the MIC (Enterococcus faecium [3]) was at most 0.063 µg/mL. For the same molecule, the MIC (Enterococcus faecium [4]) was 0.12 µg/mL, the “fold change (FC)” value (Staphylococcus aureus [5]) was “<=3” and the Activity [6] was “Non-toxic”. The viability at 72 h, 50 mg/L [7] was about 100%, the MIC (Escherichia coli) was 8 µg/mL and the survival at 7 mg/kg (Staphylococcus aureus [8]) was 100%. The Activity (Staphylococcus aureus [9]) was “Dose-dependent-effect”, the MIC (Pseudomonas aeruginosa) was over 128 µg/mL and the MIC (Klebsiella pneumoniae) was 128 µg/mL. For the same molecule, the half-life [10] was 3.57 h, the Activity (Acinetobacter baumannii [11]) was “Active” and the survival at 5 mg/kg (Enterococcus faecium [12]) was 50%. It also gave an MIC (Staphylococcus aureus [13]) of 0.125 µg/mL, an MIC (Staphylococcus aureus [14]) of 0.031 µg/mL and a clearance [15] of 2.28 mL/min/kg. It also gave an MIC (Enterococcus faecium [16]) of 0.5 µg/mL, an MIC (Acinetobacter baumannii [17]) of 32 µg/mL and a Vd [18] of 0.566 L/kg. The AUC(0-t) [19] was 41600 ng·h/mL, the Survival (Enterococcus faecium [20]) was 100% and the concentration at 8 h [21] was about 700 ng/mL. For the same molecule, the MRT inf [22] was 3.98 h, the MIC (Bacteria) was at most 0.063 µg/mL and the viability at 72 h, 50 mg/L [23] was about 100%. For the same molecule, the MIC (Acinetobacter baumannii [24]) was 16 µg/mL, the MIC (Enterococcus faecium [25]) was at most 0.063 µg/mL and the Activity [26] was “Toxic”. For the same molecule, the AUC(0-inf) [27] was 42000 ng·h/mL.
